Results published in patent US20090304692A1, “TRIAZINE COMPOUNDS AS PI3 KINASE AND MTOR INHIBITORS” (Wyeth, priority 2008, published 2009).

Tests used:
PI3K-α = PI3K-α (Homo sapiens, UniProt P42336); experiment: PI3K-alpha fluorescence polarization assay; settings: read-out: IC50 PI3Kα
PI3K-γ = PI3K-γ (Homo sapiens, UniProt P48736); experiment: PI3K-gamma fluorescence polarization assay; settings: read-out: IC50 PI3Kγ
Human mTOR (FLAG-TOR) = Human mTOR (FLAG-TOR) (Homo sapiens, UniProt P42345); experiment: mTOR kinase assay (DELFIA format, purified enzyme); assay type: biochemical; settings: read-out: IC50 mTOR
Chain of Human mTOR (FLAG-TOR) (P42345 1360-2549 limits assumed): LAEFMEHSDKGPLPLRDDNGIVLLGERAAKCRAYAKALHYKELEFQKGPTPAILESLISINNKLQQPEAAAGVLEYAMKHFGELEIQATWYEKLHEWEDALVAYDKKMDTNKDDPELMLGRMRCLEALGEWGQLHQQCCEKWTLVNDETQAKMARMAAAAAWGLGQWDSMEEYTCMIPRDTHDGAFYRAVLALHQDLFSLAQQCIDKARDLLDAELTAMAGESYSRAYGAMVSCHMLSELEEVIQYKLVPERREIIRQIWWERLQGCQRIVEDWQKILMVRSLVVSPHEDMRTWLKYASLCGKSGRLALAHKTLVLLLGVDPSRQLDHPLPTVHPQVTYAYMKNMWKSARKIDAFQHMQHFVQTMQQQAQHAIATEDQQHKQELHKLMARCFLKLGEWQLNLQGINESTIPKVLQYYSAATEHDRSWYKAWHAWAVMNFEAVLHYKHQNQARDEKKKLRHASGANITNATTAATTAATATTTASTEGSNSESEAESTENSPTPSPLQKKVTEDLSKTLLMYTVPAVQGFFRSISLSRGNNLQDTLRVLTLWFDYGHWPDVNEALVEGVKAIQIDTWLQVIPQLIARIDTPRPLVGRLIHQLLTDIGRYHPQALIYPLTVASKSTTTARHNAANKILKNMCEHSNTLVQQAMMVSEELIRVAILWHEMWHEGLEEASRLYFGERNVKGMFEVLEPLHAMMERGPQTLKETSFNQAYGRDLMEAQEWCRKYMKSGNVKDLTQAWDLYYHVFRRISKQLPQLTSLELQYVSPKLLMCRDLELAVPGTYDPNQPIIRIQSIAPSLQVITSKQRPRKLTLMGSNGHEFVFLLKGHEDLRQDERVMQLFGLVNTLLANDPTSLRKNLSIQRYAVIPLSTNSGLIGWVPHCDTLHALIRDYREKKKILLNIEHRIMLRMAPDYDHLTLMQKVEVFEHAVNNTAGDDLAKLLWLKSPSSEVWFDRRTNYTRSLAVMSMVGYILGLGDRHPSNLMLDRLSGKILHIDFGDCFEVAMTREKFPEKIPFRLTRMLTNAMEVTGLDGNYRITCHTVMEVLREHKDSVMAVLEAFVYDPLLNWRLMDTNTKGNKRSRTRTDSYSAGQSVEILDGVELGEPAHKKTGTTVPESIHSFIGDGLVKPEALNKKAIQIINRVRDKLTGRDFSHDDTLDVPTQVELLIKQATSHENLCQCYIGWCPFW

Chain of PI3K-α (P42336 whole entry, species assumed): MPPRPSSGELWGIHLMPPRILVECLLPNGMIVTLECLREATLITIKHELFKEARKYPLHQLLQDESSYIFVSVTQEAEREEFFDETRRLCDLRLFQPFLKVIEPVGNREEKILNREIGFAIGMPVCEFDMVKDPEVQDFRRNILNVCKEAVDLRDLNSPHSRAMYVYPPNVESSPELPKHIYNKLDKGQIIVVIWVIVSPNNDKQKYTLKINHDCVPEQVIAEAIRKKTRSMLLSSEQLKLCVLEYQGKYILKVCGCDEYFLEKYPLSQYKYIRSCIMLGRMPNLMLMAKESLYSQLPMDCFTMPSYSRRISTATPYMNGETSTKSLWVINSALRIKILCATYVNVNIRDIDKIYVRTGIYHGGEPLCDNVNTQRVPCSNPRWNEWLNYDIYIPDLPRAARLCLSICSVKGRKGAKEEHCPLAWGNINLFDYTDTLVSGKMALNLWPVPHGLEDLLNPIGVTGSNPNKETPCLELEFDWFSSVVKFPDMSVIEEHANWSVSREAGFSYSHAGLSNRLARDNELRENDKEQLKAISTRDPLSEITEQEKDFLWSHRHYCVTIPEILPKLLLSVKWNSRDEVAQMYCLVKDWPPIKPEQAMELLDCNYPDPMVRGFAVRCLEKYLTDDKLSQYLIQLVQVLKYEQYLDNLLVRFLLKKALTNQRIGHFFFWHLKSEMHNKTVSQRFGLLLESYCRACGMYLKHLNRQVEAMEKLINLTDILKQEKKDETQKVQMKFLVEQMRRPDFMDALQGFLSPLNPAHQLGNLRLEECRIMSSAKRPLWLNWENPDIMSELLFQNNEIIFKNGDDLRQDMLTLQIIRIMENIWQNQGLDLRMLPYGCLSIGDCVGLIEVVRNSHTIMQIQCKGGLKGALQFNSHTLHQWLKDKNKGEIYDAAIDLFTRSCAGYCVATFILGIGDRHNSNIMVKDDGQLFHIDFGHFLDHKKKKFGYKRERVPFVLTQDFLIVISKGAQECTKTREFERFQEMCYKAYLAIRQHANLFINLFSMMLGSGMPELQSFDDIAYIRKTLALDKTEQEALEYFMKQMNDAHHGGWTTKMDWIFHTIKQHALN
Chain of PI3K-α (P27986 whole entry partner, species assumed): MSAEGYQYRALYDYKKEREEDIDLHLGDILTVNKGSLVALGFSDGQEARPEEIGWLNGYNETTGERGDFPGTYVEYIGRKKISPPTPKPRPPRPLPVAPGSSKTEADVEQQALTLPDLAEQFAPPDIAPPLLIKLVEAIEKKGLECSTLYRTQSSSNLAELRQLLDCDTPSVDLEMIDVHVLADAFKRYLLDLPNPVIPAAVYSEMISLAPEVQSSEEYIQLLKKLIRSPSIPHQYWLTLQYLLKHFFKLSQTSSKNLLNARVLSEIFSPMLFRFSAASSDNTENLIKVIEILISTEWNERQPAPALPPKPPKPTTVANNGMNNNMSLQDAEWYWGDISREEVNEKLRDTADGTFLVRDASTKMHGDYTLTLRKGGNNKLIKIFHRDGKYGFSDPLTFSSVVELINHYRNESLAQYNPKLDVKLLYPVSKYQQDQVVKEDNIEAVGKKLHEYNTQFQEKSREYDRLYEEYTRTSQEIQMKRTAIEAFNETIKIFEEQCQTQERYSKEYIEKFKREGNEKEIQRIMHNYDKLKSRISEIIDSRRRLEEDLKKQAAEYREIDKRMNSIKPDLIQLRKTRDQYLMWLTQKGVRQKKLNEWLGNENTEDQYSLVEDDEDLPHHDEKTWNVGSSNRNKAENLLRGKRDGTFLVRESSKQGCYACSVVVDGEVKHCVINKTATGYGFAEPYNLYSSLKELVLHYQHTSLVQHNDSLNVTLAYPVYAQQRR
Chain of PI3K-γ (P48736 whole entry, species assumed): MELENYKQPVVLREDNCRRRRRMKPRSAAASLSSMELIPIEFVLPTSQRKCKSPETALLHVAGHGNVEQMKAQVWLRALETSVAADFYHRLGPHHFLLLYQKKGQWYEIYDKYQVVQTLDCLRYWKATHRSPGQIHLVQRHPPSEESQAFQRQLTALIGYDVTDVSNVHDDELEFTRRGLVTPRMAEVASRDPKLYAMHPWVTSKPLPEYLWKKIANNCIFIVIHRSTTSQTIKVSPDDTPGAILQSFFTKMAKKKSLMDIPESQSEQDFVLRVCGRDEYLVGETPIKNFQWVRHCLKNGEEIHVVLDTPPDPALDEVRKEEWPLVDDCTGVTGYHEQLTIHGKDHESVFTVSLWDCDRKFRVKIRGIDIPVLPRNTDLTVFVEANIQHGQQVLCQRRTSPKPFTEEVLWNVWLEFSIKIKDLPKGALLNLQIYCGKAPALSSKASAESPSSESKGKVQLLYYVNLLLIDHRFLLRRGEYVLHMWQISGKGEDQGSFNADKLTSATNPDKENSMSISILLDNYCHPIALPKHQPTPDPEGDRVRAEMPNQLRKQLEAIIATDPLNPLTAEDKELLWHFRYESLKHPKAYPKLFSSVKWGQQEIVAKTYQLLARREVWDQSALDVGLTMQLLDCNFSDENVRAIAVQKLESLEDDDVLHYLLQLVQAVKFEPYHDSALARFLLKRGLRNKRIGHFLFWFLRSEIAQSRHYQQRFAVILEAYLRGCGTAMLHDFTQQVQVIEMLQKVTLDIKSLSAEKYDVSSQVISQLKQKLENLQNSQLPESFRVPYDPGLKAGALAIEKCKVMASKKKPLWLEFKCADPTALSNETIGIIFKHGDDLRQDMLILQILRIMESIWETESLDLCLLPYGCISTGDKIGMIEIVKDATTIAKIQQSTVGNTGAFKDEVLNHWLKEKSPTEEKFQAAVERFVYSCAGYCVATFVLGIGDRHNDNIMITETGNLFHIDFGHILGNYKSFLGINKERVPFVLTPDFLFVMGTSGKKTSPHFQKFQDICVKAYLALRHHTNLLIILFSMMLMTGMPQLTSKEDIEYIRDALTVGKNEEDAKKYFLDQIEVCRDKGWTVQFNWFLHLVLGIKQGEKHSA

Row | Compound | IC50 (PI3K-α) | IC50 (PI3K-γ) | IC50 (Human mTOR (FLAG-TOR))
1 | Cc1ccc(-c2nc(-c3ccc(NC(=O)Nc4cccc(C(=O)N5CCN(C)CC5)c4)cc3)nc(N3CCOCC3)n2)cc1 [Example 576, 1-{4-[4-(4-methylphenyl)-6-morpholin-4-yl-1,3,5-triazin-2-yl]phenyl}-3-{3-[(4-methylpiperazin-1-yl)carbonyl]phenyl}urea] | 761 nM | 2080 nM | 140 nM
2 | COC(=O)c1cccc(NC(=O)Nc2ccc(-c3nc(-c4ccc(C)cc4)nc(N4CCOCC4)n3)cc2)c1 [Example 578, methyl 3-[({4-[4-(4-methylphenyl)-6-morpholin-4-yl-1,3,5-triazin-2-yl]phenyl}carbamoyl)amino]benzoate] | 2410 nM | 2510 nM | 2100 nM
3 | Cc1ccc(-c2nc(-c3ccc(NC(=O)Nc4cccc(C(=O)N(C)CCN(C)C)c4)cc3)nc(N3CCOCC3)n2)cc1 [Example 580, N-[2-(dimethylamino)ethyl]-N-methyl-3-[({4-[4-(4-methylphenyl)-6-morpholin-4-yl-1,3,5-triazin-2-yl]phenyl}carbamoyl)amino]benzamide] | 465 nM | 1320 nM | 100 nM
4 | CCc1nc(-c2ccc(NC(=O)Nc3cccc(C(=O)OC)c3)cc2)nc(N2CCOCC2)n1 [Example 581, methyl 3-({[4-(4-ethyl-6-morpholin-4-yl-1,3,5-triazin-2-yl)phenyl]carbamoyl}amino)benzoate] | 114 nM | 461 nM | 37 nM
5 | COC(=O)c1cccc(NC(=O)Nc2ccc(-c3nc(-c4cccs4)nc(N4CCOCC4)n3)cc2)c1 [Example 582, methyl 3-({[4-(4-morpholin-4-yl-6-thiophen-2-yl-1,3,5-triazin-2-yl)phenyl]carbamoyl}amino)benzoate] | 513 nM | 1090 nM | 230 nM
6 | Cc1ccc(-c2nc(-c3ccc(NC(=O)Nc4cccc(C(=O)NCCN(C)C)c4)cc3)nc(N3CCOCC3)n2)cc1 [Example 583, N-[2-(dimethylamino)ethyl]-3-[({4-[4-(4-methylphenyl)-6-morpholin-4-yl-1,3,5-triazin-2-yl]phenyl}carbamoyl)amino]benzamide] | 123 nM | 718 nM | 48 nM
7 | COC(=O)c1cccc(NC(=O)Nc2ccc(-c3nc(-c4ccccc4)nc(N4CCOCC4)n3)cc2)c1 [Example 586, methyl 3-({[4-(4-morpholin-4-yl-6-phenyl-1,3,5-triazin-2-yl)phenyl]carbamoyl}amino)benzoate] | 947 nM | 1250 nM | 365 nM
8 | CCc1nc(-c2ccc(NC(=O)Nc3cccc(C(=O)N4CCN(c5ccccn5)CC4)c3)cc2)nc(N2CCOCC2)n1 [Example 587, 1-[4-(4-ethyl-6-morpholin-4-yl-1,3,5-triazin-2-yl)phenyl]-3-{3-[(4-pyridin-2-ylpiperazin-1-yl)carbonyl]phenyl}urea] | 350 nM | 675 nM | 100 nM
9 | CCc1nc(-c2ccc(NC(=O)Nc3cccc(C(=O)N(C)CCN(C)C)c3)cc2)nc(N2CCOCC2)n1 [Example 588, N-[2-(dimethylamino)ethyl]-3-({[4-(4-ethyl-6-morpholin-4-yl-1,3,5-triazin-2-yl)phenyl]carbamoyl}amino)-N-methylbenzamide] | 524 nM | 2250 nM | 54 nM
10 | CCc1nc(-c2ccc(NC(=O)Nc3cccc(C(=O)N4CCN(C)CC4)c3)cc2)nc(N2CCOCC2)n1 [Example 589, 1-[4-(4-ethyl-6-morpholin-4-yl-1,3,5-triazin-2-yl)phenyl]-3-{3-[(4-methylpiperazin-1-yl)carbonyl]phenyl}urea] | 718 nM | 1620 nM | 57 nM
11 | O=C(Nc1ccc(-c2nc(-c3ccccc3)nc(N3CCOCC3)n2)cc1)Nc1cccc(C(=O)O)c1 [Example 590, 3-({[4-(4-morpholin-4-yl-6-phenyl-1,3,5-triazin-2-yl)phenyl]carbamoyl}amino)benzoic acid] | 343 nM | 404 nM | 49 nM
12 | COC(=O)c1ccc(NC(=O)Nc2ccc(-c3nc(N4CCCCC4)nc(N4CCOCC4)n3)cc2)cc1 [Example 591, methyl 4-({[4-(4-morpholin-4-yl-6-piperidin-1-yl-1,3,5-triazin-2-yl)phenyl]carbamoyl}amino)benzoate] | 250 nM | 726 nM | 33 nM
13 | COC(=O)c1ccc(NC(=O)Nc2ccc(-c3nc(N4CCCC4)nc(N4CCOCC4)n3)cc2)cc1 [Example 594, methyl 4-({[4-(4-morpholin-4-yl-6-pyrrolidin-1-yl-1,3,5-triazin-2-yl)phenyl]carbamoyl}amino)benzoate] | 350 nM | 744 nM | 22 nM
14 | CCCC1CCN(C(=O)c2ccc(NC(=O)Nc3ccc(-c4nc(N5CCOC[C@@H]5C)nc(N5CCOC[C@@H]5C)n4)cc3)cc2)CC1 [Example 636, 1-(4-{4,6-bis[(3S)-3-methylmorpholin-4-yl]-1,3,5-triazin-2-yl}phenyl)-3-{4-[(4-propylpiperidin-1-yl)carbonyl]phenyl}urea] | 231 nM | 468 nM | 27 nM
15 | O=C(Nc1ccncc1)Nc1ccc(-c2nc(N3CCOCC3)nc(N3CCN(C45CC6CC(CC(C6)C4)C5)CC3)n2)cc1 [Example 640, 1-{4-[4-morpholin-4-yl-6-(4-tricyclo[3.3.1.13,7]dec-1-ylpiperazin-1-yl)-1,3,5-triazin-2-yl]phenyl}-3-pyridin-4-ylurea] | 345 nM | 795 nM | 2800 nM
16 | CCCC1CCN(C(=O)c2ccc(NC(=O)Nc3ccc(-c4nc(N5CCOCC5)nc(N5CCN(C(=O)N(C)C)CC5)n4)cc3)cc2)CC1 [Example 645, N,N-dimethyl-4-(4-morpholin-4-yl-6-{4-[({4-[(4-propylpiperidin-1-yl)carbonyl]phenyl}carbamoyl)amino]phenyl}-1,3,5-triazin-2-yl)piperazine-1-carboxamide] | 105 nM | 230 nM | 120 nM

These reach a lower IC50 (PI3K-α). Values come first.

Row | IC50 (PI3K-α) | IC50 (PI3K-γ) | IC50 (Human mTOR (FLAG-TOR)) | Compound
17 | 74.5 nM | 375 nM | 8 nM | O=C(Nc1ccc(C(=O)O)cc1)Nc1ccc(-c2nc(N3CCCOCC3)nc(N3CCOCC3)n2)cc1 [Example 569, 4-[({4-[4-morpholin-4-yl-6-(1,4-oxazepan-4-yl)-1,3,5-triazin-2-yl]phenyl}carbamoyl)amino]benzoic acid]
18 | 65 nM | 131 nM | 12 nM | CCc1nc(-c2ccc(NC(=O)Nc3cccc(C(=O)O)c3)cc2)nc(N2CCOCC2)n1 [Example 585, 3-({[4-(4-ethyl-6-morpholin-4-yl-1,3,5-triazin-2-yl)phenyl]carbamoyl}amino)benzoic acid]
19 | 64.5 nM | 190 nM | 13 nM | O=C(Nc1ccc(C(=O)O)cc1)Nc1ccc(-c2nc(N3CCCC3)nc(N3CCOCC3)n2)cc1 [Example 599, 4-({[4-(4-morpholin-4-yl-6-pyrrolidin-1-yl-1,3,5-triazin-2-yl)phenyl]carbamoyl}amino)benzoic acid]
20 | 45.5 nM | 162 nM | 8 nM | O=C(Nc1ccncc1)Nc1ccc(-c2nc(N3CCCC3)nc(N3CCOCC3)n2)cc1 [Example 600, 1-[4-(4-morpholin-4-yl-6-pyrrolidin-1-yl-1,3,5-triazin-2-yl)phenyl]-3-pyridin-4-ylurea]
21 | 33 nM | 137 nM | 1 nM | C[C@H]1COCCN1c1nc(-c2ccc(NC(=O)Nc3ccc(C(=O)O)cc3)cc2)nc(N2CCOCC2)n1 [Example 619, 4-{[(4-{4-[(3S)-3-methylmorpholin-4-yl]-6-morpholin-4-yl-1,3,5-triazin-2-yl}phenyl)carbamoyl]amino}benzoic acid]
22 | 59 nM | 208 nM | 1 nM | C[C@@H]1COCCN1c1nc(-c2ccc(NC(=O)Nc3ccc(C(=O)O)cc3)cc2)nc(N2CCOC[C@@H]2C)n1 [Example 626, 4-{[(4-{4-[(3R)-3-methylmorpholin-4-yl]-6-[(3S)-3-methylmorpholin-4-yl]-1,3,5-triazin-2-yl}phenyl)carbamoyl]amino}benzoic acid]
23 | 88.5 nM | 276 nM | 7 nM | COC(=O)c1ccc(NC(=O)Nc2ccc(-c3nc(N4CCOCC4)nc(N4CCN(C(=O)N(C)C)CC4)n3)cc2)cc1 [Example 641, methyl 4-{[(4-{4-[4-(dimethylcarbamoyl)piperazin-1-yl]-6-morpholin-4-yl-1,3,5-triazin-2-yl}phenyl)carbamoyl]amino}benzoate]
24 | 69 nM | 254 nM | 1 nM | CN(C)C(=O)N1CCN(c2nc(-c3ccc(NC(=O)Nc4ccncc4)cc3)nc(N3CCOCC3)n2)CC1 [Example 642, N,N-dimethyl-4-(4-morpholin-4-yl-6-{4-[(pyridin-4-ylcarbamoyl)amino]phenyl}-1,3,5-triazin-2-yl)piperazine-1-carboxamide]
25 | 23.5 nM | 104 nM | 22 nM | CCS(=O)(=O)N1CCN(c2nc(-c3ccc(NC(=O)Nc4ccncc4)cc3)nc(N3CCOCC3)n2)CC1 [Example 650, 1-(4-{4-[4-(ethylsulfonyl)piperazin-1-yl]-6-morpholin-4-yl-1,3,5-triazin-2-yl}phenyl)-3-pyridin-4-ylurea]
26 | 71 nM | 248 nM | 14 nM | CCS(=O)(=O)N1CCN(c2nc(-c3ccc(NC(=O)Nc4ccc(C(=O)OC)cc4)cc3)nc(N3CCOCC3)n2)CC1 [Example 651, methyl 4-{[(4-{4-[4-(ethylsulfonyl)piperazin-1-yl]-6-morpholin-4-yl-1,3,5-triazin-2-yl}phenyl)carbamoyl]amino}benzoate]
27 | 36 nM | 84.5 nM | 4 nM | CCS(=O)(=O)N1CCN(c2nc(-c3ccc(NC(=O)Nc4ccc(C(=O)O)cc4)cc3)nc(N3CCOCC3)n2)CC1 [Example 652, 4-{[(4-{4-[4-(ethylsulfonyl)piperazin-1-yl]-6-morpholin-4-yl-1,3,5-triazin-2-yl}phenyl)carbamoyl]amino}benzoic acid]
